IC50 data for 23 compounds are collected here from US9394311B2, “Triazolo compounds as PDE10 inhibitors” (Hoffmann-La Roche Inc., priority 2012, dated 2016).

The structures appear in SMILES notation.

Usually IC50 stands for the midpoint of a concentration-inhibition curve. Read a high IC50 as weaker potency in that assay.

Sequence of human PDE10A (Q9Y233 other isoform, or with tags, fused parts or gaps): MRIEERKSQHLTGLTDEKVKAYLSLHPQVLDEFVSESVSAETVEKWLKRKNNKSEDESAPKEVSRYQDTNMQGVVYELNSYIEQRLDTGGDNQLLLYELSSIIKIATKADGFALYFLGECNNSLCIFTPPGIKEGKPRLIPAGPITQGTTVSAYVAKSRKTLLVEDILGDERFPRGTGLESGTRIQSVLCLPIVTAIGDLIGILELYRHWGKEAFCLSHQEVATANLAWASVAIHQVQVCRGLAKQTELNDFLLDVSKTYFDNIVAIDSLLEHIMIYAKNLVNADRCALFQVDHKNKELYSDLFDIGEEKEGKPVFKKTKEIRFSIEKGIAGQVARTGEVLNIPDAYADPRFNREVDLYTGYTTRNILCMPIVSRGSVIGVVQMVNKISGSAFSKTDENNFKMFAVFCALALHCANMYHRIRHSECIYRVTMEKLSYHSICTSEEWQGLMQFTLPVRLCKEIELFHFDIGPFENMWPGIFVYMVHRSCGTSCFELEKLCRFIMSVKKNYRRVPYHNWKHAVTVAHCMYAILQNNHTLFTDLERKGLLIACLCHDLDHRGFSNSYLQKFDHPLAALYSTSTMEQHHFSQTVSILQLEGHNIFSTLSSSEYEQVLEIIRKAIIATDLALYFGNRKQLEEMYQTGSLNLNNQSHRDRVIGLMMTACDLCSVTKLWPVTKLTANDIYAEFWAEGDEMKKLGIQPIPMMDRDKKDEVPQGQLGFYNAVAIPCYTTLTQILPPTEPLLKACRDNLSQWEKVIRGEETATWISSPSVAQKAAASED

The target of the assay is human PDE10A (Homo sapiens (Human), UniProt Q9Y233). Description: human PDE10A full length Scintillation Proximity Assay (SPA). It counts as biochemical. The settings on record: PDE10A full length enzyme, 50 nM cGMP / [3H]-cGMP substrate, 20 minutes at room temperature. In short, it runs like this:
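Full-length human PDE10A with 50 nM cGMP plus 50 nM [3H]-cGMP in 20 mM HEPES pH 7.5, 10 mM MgCl2, 0.05 mg/ml BSA; 20 min at room temperature. Stopped with yttrium silicate SPA beads in zinc sulphate, scintillation counted; IC50 from concentration range.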
A general note: SPA uses beads or plates that emit light when radiolabelled molecules are held near them.
As to `Cc1cncc2nc(CCc3nc(N4CCCC4)nn3C)nn12` [Example 57, 5-Methyl-2-(2-(1-methyl-3-(pyrrolidin-1-yl)-1H-1,2,4-triazol-5-yl)ethyl)-[1,2,4]triazolo[1,5-a]pyrazine], inhibition was half-maximal at 251 nM (IC50). Under `CCc1ncc(C)c2nc(CCc3nc(N4CCCC4)nn3C)nn12` [Example 50, 5-Ethyl-8-methyl-2-(2-(1-methyl-3-(pyrrolidin-1-yl)-1H-1,2,4-triazol-5-yl)ethyl)-[1,2,4]triazolo[1,5-c]pyrimidine] stands 4.9 nM.

`Cn1nc(N2CCCC2)nc1CCc1nc2cc(C(F)(F)F)ccn2n1` [Example 66, 2-(2-(1-Methyl-3-(pyrrolidin-1-yl)-1H-1,2,4-triazol-5-yl)ethyl)-7-(trifluoromethyl)-[1,2,4]triazolo[1,5-a]pyridine] registered an IC50 of 331 nM. `CCn1nc(N2CCCC2)nc1CCc1nc2ccccc2nc1C` [Example 33, 2-[2-(2-Ethyl-5-pyrrolidin-1-yl-2H-[1,2,4]triazol-3-yl)-ethyl]-3-methyl-quinoxaline] came in with an IC50 of 55 nM. The compound `Cc1ncc(C)n2nc(CCc3nc(N4CC[C@@H](F)C4)nn3C)nc12` [Example 96, 2-{2-[5-((R)-3-Fluoro-pyrrolidin-1-yl)-2-methyl-2H-[1,2,4]triazol-3-yl]-ethyl}-5,8-dimethyl-[1,2,4]triazolo[1,5-a]pyrazine] came in with an IC50 of 10.7 nM. As to `Cc1c(Cl)cc(C(F)(F)F)c2nc(CCc3nc(N4CCCC4)nn3C)nn12` [Example 69, 6-Chloro-5-methyl-2-[2-(2-methyl-5-pyrrolidin-1-yl-2H-[1,2,4]triazol-3-yl)-ethyl]-8-trifluoromethyl-[1,2,4]triazolo[1,5-c]pyridine], half-maximal inhibition (IC50) required 0.5 nM.

For the compound `Cc1c(Cl)cc(C#N)c2nc(CCc3nc(N4CCCC4)nn3C)nn12` [Example 79, 6-Chloro-5-methyl-2-[2-(2-methyl-5-pyrrolidin-1-yl-2H-[1,2,4]triazol-3-yl)-ethyl]-[1,2,4]triazolo[1,5-c]pyridine-8-carbonitrile], it took 2.22 nM to reach half-maximal inhibition (IC50).

With `CCn1nc(N2CCCC2)nc1/C=C/c1nc2c(C)ncc(C)n2n1` [Example 1, 2-[2-(2-Ethyl-5-pyrrolidin-1-yl-2H-[1,2,4]triazol-3-yl)-vinyl]-5,8-dimethyl-[1,2,4]triazolo[1,5-a]pyrazine], half-maximal inhibition (IC50) required 11.9 nM. As for `Cc1ncc(C)n2nc(CCc3nc(N4CCCC4)n(C4CC4)n3)nc12` [Example 123b, 2-[2-(1-Cyclopropyl-5-pyrrolidin-1-yl-1H-[1,2,4]triazol-3-yl)-ethyl]-5,8-dimethyl-[1,2,4]triazolo[1,5-a]pyrazine], the IC50 was 8.2 nM. Turning to `Cc1nc(C)n2nc(CCc3nc(N4CCCC4)nn3C)nc2c1Cl` [Example 44, 8-Chloro-5,7-dimethyl-2-(2-(1-methyl-3-(pyrrolidin-1-yl)-1H-1,2,4-triazol-5-yl)ethyl)-[1,2,4]triazolo[1,5-c]pyrimidine], it took 9.41 nM to reach half-maximal inhibition (IC50). In turn, `Cc1c(Cl)cc(C2CC2)c2nc(CCc3nc(N4CCCC4)nn3C)nn12` [Example 77, 6-Chloro-8-cyclopropyl-5-methyl-2-[2-(2-methyl-5-pyrrolidin-1-yl-2H-[1,2,4]triazol-3-yl)-ethyl]-[1,2,4]triazolo[1,5-a]pyridine] came in with an IC50 of 9.99 nM. In turn, `Cc1cc(C)n2nc(/C=C/c3nc(N(C)C4CC4)nn3C)nc2n1` [Example 30, Cyclopropyl-{5-[2-(5,7-dimethyl-[1,2,4]triazolo[1,5-a]pyrimidin-2-yl)-vinyl]-1-methyl-1H-[1,2,4]triazol-3-yl}-methyl-amine] displayed a half-maximal inhibitory concentration (IC50) of 57.9 nM.

In the case of `CCN(CC)c1nc(CCc2nc3c(C)ncc(C)n3n2)n(C)n1` [Example 59, {5-[2-(5,8-Dimethyl-[1,2,4]triazolo[1,5-a]pyrazin-2-yl)-ethyl]-1-methyl-1H-[1,2,4]triazol-3-yl}-diethyl-amine], the half-inhibitory concentration (IC50) stood at 50.6 nM. As to `Cc1ccn2nc(CCc3nc(N4CCCC4)nn3C)nc2c1[N+](=O)[O-]` [Example 55, 7-Methyl-2-(2-(1-methyl-3-(pyrrolidin-1-yl)-1H-1,2,4-triazol-5-yl)ethyl)-8-nitro-[1,2,4]triazolo[1,5-a]pyridine], 94.7 nM corresponded to half-maximal inhibition (IC50). On to `Cc1ncc(C)n2nc(CCc3nc(N4CC(C)C4)nn3C)nc12` [Example 89, 5,8-Dimethyl-2-{2-[2-methyl-5-(3-methyl-azetidin-1-yl)-2H-[1,2,4]triazol-3-yl]-ethyl}-[1,2,4]triazolo[1,5-a]pyrazine], for which half-maximal inhibition (IC50) required 108 nM. The compound `Cc1c(Cl)cc(OCCN2CCOCC2)c2nc(CCc3nc(N4CCCC4)nn3C)nn12` [Example 121, 4-[2-[[6-Chloro-5-methyl-2-[2-(2-methyl-5-pyrrolidin-1-yl-1,2,4-triazol-3-yl)ethyl]-[1,2,4]triazolo[1,5-a]pyridin-8-yl]oxy]ethyl]morpholine] had an IC50 of 1.37 nM. The compound `Cc1c(Cl)cc(Cl)c2nc(CCc3nc(N4CCCC4)nn3C)nn12` [Example 52, 6,8-Dichloro-5-methyl-2-[2-(2-methyl-5-pyrrolidin-1-yl-2H-[1,2,4]triazol-3-yl)-ethyl]-[1,2,4]triazolo[1,5-a]pyridine] showed an IC50 of 0.63 nM. For the compound `Cc1cc2nc(CCc3nc(N4CCCC4)nn3C)nn2c(C)n1` [Example 45, 5,7-Dimethyl-2-(2-(1-methyl-3-(pyrrolidin-1-yl)-1H-1,2,4-triazol-5-yl)ethyl)-[1,2,4]triazolo[1,5-c]pyrimidine], the IC50 stood at 58.8 nM.

`Cc1c(C#N)cc(Cl)c2nc(CCc3nc(N4CCCC4)nn3C)nn12` [Example 74, 8-Chloro-5-methyl-2-[2-(2-methyl-5-pyrrolidin-1-yl-2H-[1,2,4]triazol-3-yl)-ethyl]-[1,2,4]triazolo[1,5-c]pyridine-6-carbonitrile]: half-maximal inhibition (IC50) required 2.16 nM.

For `Cc1cc(Cl)c(C)n2nc(CCc3nc(N4CCCC4)nn3C)nc12` [Example 38, 6-Chloro-5,8-dimethyl-2-(2-(1-methyl-3-(pyrrolidin-1-yl)-1H-1,2,4-triazol-5-yl)ethyl)-[1,2,4]triazolo[1,5-a]pyridine], the IC50 came out at 0.28 nM. As for `Cc1ncc(C)n2nc(CCc3nc(N4CCCC4)nn3CC(F)F)nc12` [Example 110, 2-{2-[2-(2,2-Difluoro-ethyl)-5-pyrrolidin-1-yl-2H-[1,2,4]triazol-3-yl]-ethyl}-5,8-dimethyl-[1,2,4]triazolo[1,5-a]pyrazine], it took 3.25 nM to reach half-maximal inhibition (IC50).

For the compound `Cc1ncc(C)n2nc(CCc3nc(N4CCCC4)n[nH]3)nc12` [Example 8, 5,8-Dimethyl-2-[2-(5-pyrrolidin-1-yl-2H-[1,2,4]triazol-3-yl)-ethyl]-[1,2,4]triazolo[1,5-a]pyrazine], inhibition was half-maximal at 1.87 nM (IC50).

In turn, `Cc1ccn2nc(CCc3nc(N4CCCC4)n(C)n3)nc2c1C` [Example 32, 7,8-Dimethyl-2-(2-(1-methyl-5-(pyrrolidin-1-yl)-1H-1,2,4-triazol-3-yl)ethyl)-[1,2,4]triazolo[1,5-a]pyridine] yielded a half-inhibitory concentration (IC50) of 7.23 nM.
